The values that follow come from US6573045B1, “Methods and kits for discovery of RNA-binding compounds” (Ribotargets, Ltd., priority 1998, dated 2003).

Broadly, the Kd is a measure of binding affinity in units of concentration.

Several values for one entry are separate records, joined by “and”; a condition that tells them apart may be missing. Identical values can stand only once. Ends that are not written are not given here. * marks the point of attachment. TAMRA = tetramethylrhodamine (fluorescent label); DABCYL = CN(C)c1ccc(/N=N/c2ccc(C(=O)*)cc2)cc1

In one assay the target is FAM-TAR RNA. The assay is described as follows: Quenching of FAM-TAR RNA by DABCYL-labelled ADP-1. The format is binding, HIV. Particulars: 20 nM FAM-TAR, FIG. 19. As for the experimental part:
It is also possible to place a fluorescent group on the RNA target and a quenching group on the reporter molecule. […] The DABCYL-ADP-1 was pre-treated in the presence of 1% TFA at room temperature for 5 minutes prior to dilution into binding buffer (0.01% Triton X-100, 5 μg/ml BSA, 1% DMSO, 50 mM Tris-HCl pH 7.6, 20 mM KCl) and incubated on ice prior to complex formation.
Reactions were equilibrated at room temperature for 15 minutes prior to analysis in the Wallac Victor2 plate reader. The reactions were excited at 485 nm and fluorescence emission recorded at 535 nm. The fluorescence emission signal of the 20 nM FAM-TAR is progressively quenched after addition of increasing amounts of DABCYL-ADP-1 peptide. The experimental data shown in FIG. 19 was analysed in GraphPad PRISMTM using a non linear regression fit for single site binding.

The target in the next assay is TAR bulge RNA. Kind of assay: Dabcyl-peptide binding to Fam-labelled RNA (quenching), TAR. On the set-up: species or system HIV. Conditions: 110 mM KCl. The source says: (§1) A representative subset comprising 40 peptide sequences from the total of 243 possible sequences was synthesised and is shown in Table 6. The peptides from the library are: No. 3 (SEQ ID NO:11), 4 (SEQ ID NO:12), 5 (SEQ ID NO:13), 6 (SEQ ID NO:14), 7 (SEQ ID NO:15), 8 (SEQ ID NO:16), 9 (SEQ ID NO:17), 10 (SEQ ID NO:18), 11 (SEQ ID NO:19), 12 (SEQ ID NO:20), 13 (SEQ ID NO:21), 14 (SEQ ID NO:22), 15 (SEQ ID NO:23), 16 (SEQ ID NO:24), 17 (SEQ ID NO:25), 18 (SEQ ID NO:26), 19 (SEQ ID NO:27), 20 (SEQ ID NO:28), 21 (SEQ ID NO:29), 22 (SEQ ID NO:30), 23 (SEQ ID NO:31), 24 (SEQ ID NO:32), 25 (SEQ ID NO:33), 26 (SEQ ID NO:34), 27 (SEQ ID NO:35), 28 (SEQ ID NO:36), 29 (SEQ ID NO:37), 30 (SEQ ID NO:38), 31 (SEQ ID NO:39), 32 (SEQ ID NO:40), 33 (SEQ ID NO:41), 34 (SEQ ID NO:42), 35 (SEQ ID NO:43), 36 (SEQ ID NO:44), 37 (SEQ ID NO:45), 38 (SEQ ID NO:46), 39 (SEQ ID NO:47), 40 (SEQ ID NO:48), 41 (SEQ ID NO:49), 42 (SEQ ID NO:50). These peptides were assayed for their ability to bind to range of RNA sequences carrying fluorescein attached to the 5′ end, as shown in FIG. 25.
(§2) FIG. 26. presents binding data for the peptide sequence 5 (KKQKR) (SEQ ID NO: 13) and the 4 RNA sequences. Reactions (100 μl) containing Fam-labelled RNA (10 nM) were mixed with increasing concentrations of Dabcyl-labelled ADP-1 peptide (up to 250 nM) in 50 mM Tris/Cl, pH7.4, 20 mM or 110 mM KCl (as indicated), 5 μg/ml BSA, 0.01% Triton X-100, 1% DMSO. Fluorescence (excitation 490 nm/emission at 535 nm) was determined using a Victor plate reader.
(§3) Dissociation constants were determined by fitting a binding isotherm (1-site-binding) to the data using the equation:
(§4) Y=((Fmax−Fmin)−((Fmax−Fmin)*X/(Kd+X)))+Fmin
(§5) where Fmax is fluorescence in the absence of quencher, Fmin is fluorescence at saturation, and X is peptide concentration.

Another assay addresses RRE RNA. The assay is described as follows: Dabcyl-peptide binding to Fam-labelled RNA (quenching), RRE. Also noted: species or system HIV. Particulars: RRE, 110 mM KCl.
Text: as §1, §2, §3, §4, §5

In the next assay the target is GTPase-LHL RNA. The assay is described as follows: Dabcyl-peptide binding to Fam-labelled RNA (quenching), GTPase LHL. Particulars: GTPase-LHL, 110 mM KCl.
Text: as §1, §2, §3, §4, §5

A further assay deals with ss-19mer RNA. Kind of assay: Dabcyl-peptide binding to Fam-labelled RNA (quenching), single stranded RNA. Conditions: ss-19mer, 110 mM KCl.
Text: as §1, §2, §3, §4, §5

A further assay addresses DABCYL-RRE RNA. Kind of assay: Quenching of TAMRA-labelled Rev peptide by DABCYL-RRE RNA. The class given is binding, HIV. Conditions: 20 nM TAMRA-Rev, increasing DABCYL-RRE, FIG. 21. The protocol:
(§6) In the experiment shown in FIG. 21, 20 nM TAMRA-Rev was incubated with increasing concentrations of DABCYL-RRE. The TAMRA-Rev was pre-treated in the presence of 1% TFA at room temperature for 5 minutes prior to dilution in to storage buffer (0.01% Triton X-100, 5 μg/ml BSA, 1% DMSO, 50 mM Tris-HCl pH 8, 50 mM KCl) and incubated on ice prior to complex formation. Reactions were equilibrated at room temperature for 15 minutes prior to analysis in the Wallac Victor2 plate reader. The reactions were excited at 544 nm and fluorescence emission recorded at 570 nm. The fluorescence emission signal of the 20 nM TAMRA-Rev alone was subtracted from each signal obtained in the presence of increasing amounts of DABCYL-RRE and plotted as a function of DABCYL-RRE concentration (FIG. 21) in GraphPad PRISMTM using a non linear regression fit for single site binding.

Another assay has as its target DABCYL-TAR RNA. The assay is described as follows: Quenching of TAMRA-labelled Rev peptide by DABCYL-TAR RNA. The format is binding, HIV. Particulars: 20 nM TAMRA-Rev, increasing DABCYL-TAR, FIG. 22. The protocol:
as §6, with “20” for “In the experiment shown in FIG. 21, 20”, “DABCYL-TAR.” for “DABCYL-RRE.”, “into” for “in to”, “DABCYL-TAR” for “DABCYL-RRE”, “22)” for “21)”

Turning to “DABCYL-Phe-Thr-Thr-Lys-Ala-Leu-Gly-Ile-Ser-Tyr-Gly-Arg-Lys-Lys-Arg-Arg-Gln-Arg-Arg-Arg-Pro-Pro-Gln-Gly-Ser-Gln-Thr-His-Gln-Val-Ser-Leu-Ser-Lys-Gln ({DABCYL}-FTTKALGISYGRKKRRQRRRPPQGSQTHQVSLSKQ) [DABCYL-ADP-1]”, the Kd is 0.033 µM on FAM-TAR RNA; 0.035 µM and 0.041 µM on TAR bulge RNA; 0.039 µM on RRE RNA; 0.131 µM at GTPase-LHL RNA; 0.511 µM on ss-19mer RNA.
For “TAMRA-Asp-Thr-Arg-Gln-Ala-Arg-Arg-Asn-Arg-Arg-Arg-Arg-Trp-Arg-Glu Arg-Gln-Arg ({TAMRA}-DTRQARRNRRRRWRERQR) [TAMRA-Rev]”, the Kd on DABCYL-RRE RNA turned out to be 0.137 ± 0.023 µM; on DABCYL-TAR RNA it was 11 µM.
